Assay results taken from patent US8143394B2, “Pyrido(3,2-d)pyrimidines useful for treating viral infections” (Gilead Sciences, Inc., priority 2006, dated 2012).

Experiments:
[1] = tested on: HCV replicon; assay: Anti-HCV replicon assay (EC50, luciferase readout); format: cell-based; details: Hepatitis C virus, 72 h; human hepatoma Huh-7 cell line harbouring a HCV replicon; 3 days; luciferase; read-out: EC50
Experimental: (§1) The anti-HCV activity of the pyrido[3,2-d]pyrimidine derivatives of this invention was tested in a human hepatoma Huh-7 cell line harbouring a HCV replicon. The assay comprised the following steps:
(§2) Step 1: Compound Preparation and Serial Dilution
(§3) • 1. for water soluble pyrido[3,2-d]pyrimidine derivatives, a volume of 500 μL of solution in cell media (DMEM, 10% FBS, P/S, L-Glutamine) was prepared with a concentration being twice the concentration of the starting final serial dilution concentration. A volume of 150 μL of the solution was added to the pre-specified wells in column 1 of a 96-well cell culture plate (PerkinElmer, white plate, cat. #6005181, for EC50 assay; black plate, cat. #6005182 for CC50 assay). The rest of the plate, columns 2-12, was filled with 100 μL of cell media. The plate was then placed on a Precision 2000 Workstation to start the serial dilution. Compounds were diluted three times each step from column 1 to column 10. Column 11 was used as a blank control (no compound added). • 2. for pyrido[3,2-d]pyrimidine derivatives requiring DMSO to dissolve, serial dilution is performed in 50% DMSO in a 384-well plate. A solution containing a compound at 100-fold concentration of the starting final serial dilution concentration was prepared in 50% DMSO and added to the pre-specified wells in column 1 of a polypropylene 384-well plate. The plate was then placed on a Precision 2000 Workstation to start the serial dilution. After the serial dilution, a volume of 2 μL of the solution was transferred from the 384-well plate to a 96-well cell culture plate containing 100 μL of cell media on a Biomek FX Workstation. The DMSO concentration in the final assay condition was 0.5% after cells are added to the plate and the total volume in each well is brought to 200 μL. Step 2: to each well of the serial dilution plate prepared above, 100 μL of cell media containing 6000 suspended Huh-7 HCV replicon cells was added with a Multidrop workstation. The plates were incubated for 3 days at 37° C. with 5% CO2. Step 3: Detection: • a) for the EC50 assay, the media in a 96-well cell culture plate was aspirated with a Biotek EL405 plate-washer. A volume of 200 μL of a solution containing a 1:1 mixture of cell-lysis buffer (Promega, Luciferase Cell Culture Lysis 5X Reagent, cat. #E1531) and luciferase substrate solution (Promega, Luciferase Assay, cat. # E4550) was added to each well of the plate with Multidrop. The plate was incubated for 30 minutes at room temperature before the luminescence signal was measured with a TopCount plate-reader. • b) for the CC50 assay, a volume of 100 μL of pre-mixed CellTiter-Glo (Promega, cat. # G7572) solution is added directly to the cell culture in each well of the plate and the luminescence signal is measured with a TopCount plate-reader after 10 minutes of incubation at room temperature.
(§4) Results in table 13 are expressed by the following data: • the 50% effective concentration (EC50), i.e. the concentration that protects 50% of the cell monolayer from virus-induced cythopathic effect, and • the 50% cytostatic concentration (CC50), i.e. the concentration that results in 50% inhibition of cell growth.

[2] = CC50 assay (CellTiter-Glo) in Huh-7 HCV replicon cells; format: cell-based, human; details: human, 50% cytostatic concentration
Experimental: as §1, §2, §3, §4

Row | SMILES | EC50 [1] | CC50 at 3 days [2]
1 | CC(C)(N)C(=O)Nc1ccc(-c2ccc3nc(N)nc(NCCS(C)(=O)=O)c3n2)cc1 [Example 1, 2-Amino-N-{4-[2-amino-4-(2-methanesulfonyl-ethylamino)-pyrido[3,2-d]pyrimidin-6-yl]-phenyl}-2-methyl-propionamide] | < 300 nM | < 10000 nM
2 | CS(=O)(=O)CCNc1nc(N)nc2ccc(-c3cccc(NS(=O)(=O)C4CC4)c3)nc12 [Example 2, Cyclopropanesulfonic acid {3-[2-amino-4-(2-methanesulfonyl-ethylamino)-pyrido[3,2-d]pyrimidin-6-yl]-phenyl}-amide] | 300 to 1000 nM | > 20000 nM
3 | CS(=O)(=O)CCNc1nc(N)nc2ccc(-c3cccc(NS(C)(=O)=O)c3)nc12 [Example 3, N-{3-[2-Amino-4-(2-methanesulfonyl-ethylamino)-pyrido[3,2-d]pyrimidin-6-yl]-phenyl}-methanesulfonamide] | 300 to 1000 nM | > 20000 nM
4 | CCC(=O)Nc1ccc(-c2ccc3nc(N)nc(NCCS(C)(=O)=O)c3n2)cc1 [Example 4, N-{4-[2-Amino-4-(2-methanesulfonyl-ethylamino)-pyrido[3,2-d]pyrimidin-6-yl]-phenyl}-propionamide] | > 1000 nM | > 20000 nM
5 | CC(C)C(=O)Nc1ccc(-c2ccc3nc(N)nc(NCCS(C)(=O)=O)c3n2)cc1 [Example 5, N-{4-[2-Amino-4-(2-methanesulfonyl-ethylamino)-pyrido[3,2-d]pyrimidin-6-yl]-phenyl}-isobutyramide] | < 300 nM | > 20000 nM
6 | COC(=O)Nc1ccc(-c2ccc3nc(N)nc(NCCS(C)(=O)=O)c3n2)cc1 [Example 6, {4-[2-Amino-4-(2-methanesulfonyl-ethylamino)-pyrido[3,2-d]pyrimidin-6-yl]phenyl}-carbamic acid methyl ester] | 300 to 1000 nM | 10000 to 20000 nM
7 | CS(=O)(=O)CCNc1nc(N)nc2ccc(-c3ccc(C(=O)NC4CC4)cc3)nc12 [Example 7, 4-[2-Amino-4-(2-methanesulfonyl-ethylamino)-pyrido[3,2-d]pyrimidin-6-yl]-N-cyclopropyl-benzamide] | 300 to 1000 nM | > 20000 nM
8 | CCC(=O)Nc1ccc(-c2ccc3nc(N)nc(NCCOC)c3n2)cc1 [Example 8, N-{4-[2-Amino-4-(2-methoxy-ethylamino)-pyrido[3,2-d]pyrimidin-6-yl]-phenyl}-propionamide] | < 300 nM | > 20000 nM
9 | COCCNc1nc(N)nc2ccc(-c3ccc(NC(=O)C(C)C)cc3)nc12 [Example 9, N-{4-[2-Amino-4-(2-methoxy-ethylamino)-pyrido[3,2-d]pyrimidin-6-yl]-phenyl}-isobutyramide] | < 300 nM | 10000 to 20000 nM
10 | COCCNc1nc(N)nc2ccc(-c3ccc(NC(=O)OC)cc3)nc12 [Example 10, {4-[2-Amino-4-(2-methoxy-ethylamino)-pyrido[3,2-d]pyrimidin-6-yl]-phenyl}-carbamic acid methyl ester] | 300 to 1000 nM | > 20000 nM
11 | COCCNc1nc(N)nc2ccc(-c3ccc(C(=O)NC4CC4)cc3)nc12 [Example 11, 4-[2-Amino-4-(2-methoxy-ethylamino)-pyrido[3,2-d]pyrimidin-6-yl]-N-cyclopropyl-benzamide] | < 300 nM | > 20000 nM
12 | CCC(=O)Nc1ccc(-c2ccc3nc(N)nc(N4CCS(=O)(=O)CC4)c3n2)cc1 [Example 12, N-{4-[2-Amino-4-(1,1-dioxo-1λ^6-thiomorpholin-4-yl)-pyrido[3,2-d]pyrimidin-6-yl]-phenyl}-propionamide] | < 300 nM | < 10000 nM
13 | COC(=O)Nc1ccc(-c2ccc3nc(N)nc(N4CCS(=O)(=O)CC4)c3n2)cc1 [Example 13, {4-[2-Amino-4-(1,1-dioxo-1λ^6-thiomorpholin-4-yl)-pyrido[3,2-d]pyrimidin-6-yl]-phenyl}-carbamic acid methyl ester] | < 300 nM | > 20000 nM
14 | CC(C)C(=O)Nc1ccc(-c2ccc3nc(N)nc(N4CCS(=O)(=O)CC4)c3n2)cc1 [Example 14, N-{4-[2-Amino-4-(1,1-dioxo-1λ^6-thiomorpholin-4-yl)-pyrido[3,2-d]pyrimidin-6-yl]-phenyl}-isobutyramide] | < 300 nM | > 20000 nM
15 | CC(=O)Nc1ccc(-c2ccc3nc(N)nc(N4CCS(=O)(=O)CC4)c3n2)cc1 [Example 15, N-{4-[2-Amino-4-(1,1-dioxo-1λ^6-thiomorpholin-4-yl)-pyrido[3,2-d]pyrimidin-6-yl]-phenyl}-acetamide] | < 300 nM | > 20000 nM
16 | Nc1nc(N2CCS(=O)(=O)CC2)c2nc(-c3ccc(C(=O)NC4CC4)cc3)ccc2n1 [Example 16, 4-[2-Amino-4-(1,1-dioxo-1λ^6-thiomorpholin-4-yl)-pyrido[3,2-d]pyrimidin-6-yl]-N-cyclopropyl-benzamide] | < 300 nM | 10000 to 20000 nM
17 | Nc1nc(N2CCOCC2)c2nc(-c3ccc(C(=O)NC4CC4)cc3)ccc2n1 [Example 17, 4-(2-amino-4-morpholin-4-yl-pyrido[3,2-d]pyrimidin-6-yl)-N-cyclopropyl-benzamide] | < 300 nM | < 10000 nM
18 | CCC(=O)Nc1ccc(-c2ccc3nc(N)nc(OCCOC)c3n2)cc1 [Example 18, N-{4-[2-Amino-4-(2-methoxy-ethoxy)-pyrido[3,2-d]pyrimidin-6-yl]-phenyl}-propionamide] | 300 to 1000 nM | > 20000 nM
19 | COCCOc1nc(N)nc2ccc(-c3ccc(NC(=O)OC)cc3)nc12 [Example 19, {4-[2-Amino-4-(2-methoxy-ethoxy)-pyrido[3,2-d]pyrimidin-6-yl]-phenyl}-carbamic acid methyl ester] | 300 to 1000 nM | > 20000 nM
20 | COCCOc1nc(N)nc2ccc(-c3ccc(C(=O)NC4CC4)cc3)nc12 [Example 20, 4-[2-Amino-4-(2-methoxy-ethoxy)-pyrido[3,2-d]pyrimidin-6-yl]-N-cyclopropyl-benzamide] | < 300 nM | > 20000 nM
21 | CC(C)C(=O)Nc1ccc(-c2ccc3nc(N)nc(OCCF)c3n2)cc1 [Example 21, N-{4-[2-amino-4-(2-fluoro-ethoxy)-pyrido[3,2-d]pyrimidin-6-yl]-phenyl}-isobutyramide] | 300 to 1000 nM | > 20000 nM
22 | Nc1nc(O[C@@H]2CCOC2)c2nc(-c3ccc(NC(=O)[C@H]4CCNC4)c(F)c3)ccc2n1 [Example 22, Pyrrolidine-3-carboxylic acid {4-[2-amino-4-(tetrahydro-furan-3-yloxy)-pyrido[3,2-d]pyrimidin-6-yl]-2-fluoro-phenyl}-amide] | < 300 nM | > 20000 nM
23 | CC(C)(N)C(=O)Nc1ccc(-c2ccc3nc(N)nc(O[C@@H]4CCOC4)c3n2)cc1F [Example 23, 2-Amino-N-{4-[2-amino-4-(tetrahydro-furan-3-yloxy)-pyrido[3,2-d]pyrimidin-6-yl]-2-fluoro-phenyl}-2-methyl-propionamide] | < 300 nM | > 20000 nM
24 | Nc1nc(O[C@@H]2CCOC2)c2nc(-c3ccc(NC(=O)[C@H]4CCNC4)cc3)ccc2n1 [Example 24, Pyrrolidine-3-carboxylic acid {4-[2-amino-4-(tetrahydro-furan-3-yloxy)-pyrido[3,2-d]pyrimidin-6-yl]-phenyl}-amide] | > 1000 nM | > 20000 nM
25 | CC(C)(N)C(=O)Nc1ccc(-c2ccc3nc(N)nc(O[C@@H]4CCOC4)c3n2)cc1 [Example 25, 2-Amino-N-{4-[2-amino-4-(tetrahydro-furan-3-yloxy)-pyrido[3,2-d]pyrimidin-6-yl]-phenyl}-2-methyl-propionamide] | < 300 nM | 10000 to 20000 nM
26 | CS(=O)(=O)Nc1cccc(-c2ccc3nc(N)nc(O[C@@H]4CCOC4)c3n2)c1 [Example 26, N-{3-[2-Amino-4-(tetrahydro-furan-3-yloxy)-pyrido[3,2-d]pyrimidin-6-yl]-phenyl}-methanesulfonamide] | < 300 nM | > 20000 nM
